Like-named read-outs stand apart in the source and are kept apart here.
How the values were obtained:
P. knackmussii = assay: Shaken flask fermentation with 10 mM 2-FBz or 3-FBz; assay type: cell-based, Pseudomonas knackmussii; parameters: rate qp: unit not given here; settings: for product formation rate qp: from 2-FBz; for rate qp: from 3-FBz
CatR/Pcat = assay type: cell-based, P. putida KT2440; settings: 1.0 mM
P. putida KT2440 [1] = settings: 30 mM glucose; for Maximum growth rate μmax: Example 6 (improved method)
P. putida KT2440 [2] = assay: Shaken flask fermentation with 10 mM 2-FBz or 3-FBz; assay type: cell-based, Pseudomonas putida
Pmuc10 = assay: Microtiter plate cultivation: growth with metabolites of the bioconversion; settings: Example 6 (improved method), 30 mM glucose
[3] = test system: msfGFP reporter gene under control of BCD10; assay type: cell-based, P. putida KT2440; settings: 5 mM 3-FBz (inducible systems), 30 mM glucose, FIG. 6

With `O=C(O)/C=C\C=C(\F)C(=O)O` [Strain 2-FMA, 2-fluoro-cis,cis-muconate] the “product formation rate qp” value (P. knackmussii; Example 1) was 0.05 mmol gCDW^−1 h^−1, the “product formation rate qp” value (P. knackmussii; Example 6) was 0.03 mmol gCDW^−1 h^−1 and the rate qp (P. knackmussii; Example 1) was 0.05. For the same molecule, the rate qp (P. knackmussii; Example 6) was 0.09, the “response to 1.0 mM as compared to 1.0 mM ccMA” value (CatR/Pcat) was 6.7 fold and the “reduction of growth rate and maximum biomass concentration” value (P. putida KT2440 [1]; 15 mM, FIG. 14) was 50%. For the same molecule, the “concentration up to which the growth profile was similar to cultures with glucose only” value (P. putida KT2440 [1]; FIG. 14) was “up to 10 mM”, the “Maximum growth rate μmax” value (P. putida KT2440 [1]; 1.0 mM additive) was 0.86 h⁻¹ and the “Maximum growth rate μmax” value (P. putida KT2440 [1]; 2.0 mM additive) was 1.00 h⁻¹. For the same molecule, the “Maximum growth rate μmax” value (P. putida KT2440 [1]; 5.0 mM additive) was 0.86 h⁻¹, the “Maximum growth rate μmax” value (P. putida KT2440 [1]; 10 mM additive) was 0.80 h⁻¹ and the “Maximum growth rate μmax” value (P. putida KT2440 [1]; 15 mM additive) was 0.66 h⁻¹. For the same molecule, the “Maximum growth rate μmax” value (P. putida KT2440 [1]; 20 mM additive) was “no growth”, the “combined product formation rate qp” value (P. putida KT2440 [2]; 10 mM 3-FBz) was 0.06 mmol gCDW^−1 h^−1 and the “product formation rate qp” value (P. putida KT2440 [2]; from 10 mM 2-FBz) was 0.06 mmol gCDW^−1 h^−1. The “Maximum growth rate μmax” value (Pmuc10; 1 mM additive) was 1.24 h⁻¹, the “Maximum growth rate μmax” value (Pmuc10; 2.0 mM additive) was 1.20 h⁻¹ and the “Maximum growth rate μmax” value (Pmuc10; 5 mM additive) was 1.08 h⁻¹. The “Maximum growth rate μmax” value (Pmuc10; 10 mM additive) was 0.98 h⁻¹, the “Maximum growth rate μmax” value (Pmuc10; 15 mM additive) was 0.47 h⁻¹ and the “Maximum growth rate μmax” value (Pmuc10; 20 mM additive) was “no growth”.

With “P14g: constitutive promoter, SEQ ID NO: 50 (DNA GCCCATTGACAAGGCTCTCGCGGCCAGGTATAATTGCACGA; expressed or natural sequence) [Strain P14g, reference compound]” the “transcription initiation rate: quotient of OD630 nm-normalized fluorescence with the one of Ptac” value [3] was 2.51.

B1: PEM7: constitutive promoter, SEQ ID NO: 59 (nucleic acid)
DNA: TTGTTGACAATTAATCATCGGCATAGTATATCGGCATAGTATAATACGACAAGGTGAGGAACTAAACC
modifications: expressed or natural sequence
With B1 the “transcription initiation rate: quotient of OD630 nm-normalized fluorescence with the one of Ptac” value [3] was 0.57.

Source: US20230323410A1, “BACTERIAL CELLS AND METHODS FOR PRODUCTION OF 2-FLUORO-CIS,CIS-MUCONATE” (priority 2020, published 2023)
